Measurements published in patent US11427574B2, “Compounds for treating Rac-GTPase mediated disorder” (Children's Medical Center Corporation, priority 2015, dated 2022).

What was measured:
[1] = molecular target: Rac1 (Homo sapiens, UniProt P63000); assay: 2D NMR spectroscopy binding assay; conditions: 50 μM Rac1 and 250 μM or 400 μM Compound 1
Protocol: Compound 1 was tested for its efficacy in binding with Rac1 in two independent binding assays, i.e., 2D NMR spectroscopy and Homologous time resolved fluorescence assay (HTRF).
In the 2D NMR assay, samples containing 50 μM Rac1 and 250 μM or 400 μM Compound 1 were used.
Compound 2 was tested for its efficacy in binding with Rac1 in two independent binding assays, i.e., 2D NMR spectroscopy and Homologous time resolved fluorescence assay (HTRF).
In the 2D NMR assay, a sample containing 50 μM Rac1 and 250 μM Compound 2 was used.

[2] = molecular target: T1, RHOA (Homo sapiens, UniProt P61586); assay: RHOA activation pull down assay (Western blot); assay type: cell-based; conditions: Western Blot (FIG. 11a)
T1 construct: endogenous in cells
Excerpt: (§1) Compound 1 was further tested to evaluate its effect on RHOA and RAS activation.

[3] = tested on: 12 GPCRs; assay: GPCR profiling, whole panel; assay type: binding; conditions: summary of Table 2, antagonist and agonist
Protocol: (§2) Compound 1 was tested for its efficacy in inhibiting activities of 40 kinases and binding with 12 GPCRs both as an antagonist and an agonist.

[4] = tested on: Rac; assay: Rac activation Elisa on spleen infiltrated by leukemic blasts; assay type: in vivo; conditions: mice, 250 mg/Kg twice a day for 21 days, compared to a vehicle
Protocol: (§3) Compound 1 was assayed for its pharmacokinetics and anti-leukemia activities in mice. Specifically, a SEM leukemic cell line was labeled with a vector encoding the mCherry tag and Luciferase. 500,000 labeled cells were injected into immunodeficient mice (NSG mice). After establishment of leukemia (as assessed by bioluminescent imaging), mice were treated with Compound 1 at a dose 250 mg/Kg or a vehicle for 21 days twice a day. During treatment, mice were imaged every other day and BLI recorded and analyzed. 2 hours after the last dose, animals were sacrificed and organs harvested for PK and PD analysis.

[5] = tested on: 40 kinases; assay: Kinase screening, whole panel; assay type: biochemical; conditions: summary of Table 1
Protocol: as §2

[6] = tested on: Loucy cells; assay: Proliferation assay in Loucy leukemia cells; assay type: cell-based; conditions: read-out: IC50, inhibition of proliferation
Protocol: (§4) Dose Dependent Inhibition of Proliferation The 100 compounds selected from the initial in silico screen were assayed for inhibition of proliferation in two leukemia cell lines, SEM and P12 by Cell Titer Glo. The cells for the proliferation assay were spun down and re-suspended. The cell suspension was then divided and the compound to be tested added in desired concentrations and subsequently plated. Following an incubation period, the Cell Titer Glo reagent (Promega CellTiter 96® Aqueous Non-Radioactive Cell Proliferation Assay) was added and allowed to incubate. The absorbance is subsequently measured at 490 nm using a plate reader. Each compound was analyzed for its effects on cell proliferation.
(§5) The lead compound, i.e. Compound 1, was analyzed for its effect on cell proliferation at various doses on three different leukemia cell lines: SEM, P12, and Loucy. In order to quantitate the percentage inhibition of cell proliferation, Cell Titer Glo analysis was completed as described in Example 2 above.
(§6) FIGS. 3a-3c show three graphs illustrating the dose dependent inhibition of proliferation of Compound 1 in SEM, P12, and Loucy cells as measured by MTS assay. […] Compound 1 was further analyzed for its effect on cell apoptosis and cell death using a flow based assay using Annexin V staining.

[7] = tested on: P12-Ichikawa cells; assay: Proliferation assay in P12 leukemia cells; assay type: cell-based; conditions: Homo sapiens, read-out: IC50, inhibition of proliferation
Protocol: as §4, §5, §6

[8] = tested on: RAS; assay: RAS activation pull down assay (Western blot); assay type: cell-based; conditions: Western Blot (FIG. 11b)
Excerpt: as §1

[9] = tested on: SEM cell line; assay: Annexin V flow assay for apoptosis and cell death, SEM; assay type: cell-based; conditions: Annexin V staining
Excerpt: as §6
Compound 2 was further analyzed for its effect on cell apoptosis and cell death using a flow based assay using Annexin V staining.

[10] = molecular target: MAPK3 (ERK1) (Homo sapiens, UniProt P27361); assay: Kinase screening; assay type: biochemical
Protocol: as §2

[11] = molecular target: SRC (Homo sapiens, UniProt P12931); assay: Kinase screening; assay type: biochemical
Protocol: as §2

[12] = molecular target: PAK1 (Homo sapiens, UniProt Q13153); assay: Kinase screening; assay type: biochemical
Protocol: as §2

[13] = molecular target: MAP2K2 (MEK2) (Homo sapiens, UniProt P36507); assay: Kinase screening; assay type: biochemical
Protocol: as §2

[14] = molecular target: JAK2 (Homo sapiens, UniProt O60674); assay: Kinase screening; assay type: biochemical
Protocol: as §2

[15] = molecular target: KIT (Homo sapiens, UniProt P10721); assay: Kinase screening; assay type: biochemical
Protocol: as §2

[16] = molecular target: AKT1 (PKB alpha) (Homo sapiens, UniProt P31749); assay: Kinase screening; assay type: biochemical
Protocol: as §2

[17] = molecular target: JAK1 (Homo sapiens, UniProt P23458); assay: Kinase screening; assay type: biochemical
Protocol: as §2

[18] = molecular target: JAK3 (Homo sapiens, UniProt P52333); assay: Kinase screening; assay type: biochemical
Protocol: as §2

[19] = molecular target: AKT2 (PKB beta) (Homo sapiens, UniProt P31751); assay: Kinase screening; assay type: biochemical
Protocol: as §2

[20] = molecular target: CDC42 BPB (MRCKB) (Homo sapiens, UniProt Q9Y5S2); assay: Kinase screening; assay type: biochemical
Protocol: as §2

[21] = molecular target: CDK1/cyclin B (Homo sapiens, UniProt P06493); assay: Kinase screening; assay type: biochemical
Protocol: as §2

[22] = molecular target: PIK3C2B (PI3K-C2 beta) (Homo sapiens, UniProt O00750); assay: Kinase screening; assay type: biochemical
Protocol: as §2

[23] = molecular target: PIK3CD/PIK3R1 (p110 delta/p85 alpha) (Homo sapiens, UniProt O00329); assay: Kinase screening; assay type: biochemical
Protocol: as §2

[24] = molecular target: MYLK (MLCK) (Homo sapiens, UniProt Q15746); assay: Kinase screening; assay type: biochemical
Protocol: as §2

[25] = molecular target: EPHB1 (Homo sapiens, UniProt P54762); assay: Kinase screening; assay type: biochemical
Protocol: as §2

[26] = tested on: SEM leukemic cell line; assay: In vivo SEM leukemia model in NSG mice; conditions: 250 mg/Kg twice a day for 21 days
Protocol: as §3
FIGS. 8b and 8c show the bioluminescence data obtained from the mice treated with Compound 1 and a vehicle when the mice were imaged in a supine position and a prone position, respectively.

Sequence of EPHB1 (P54762 18-984, species assumed): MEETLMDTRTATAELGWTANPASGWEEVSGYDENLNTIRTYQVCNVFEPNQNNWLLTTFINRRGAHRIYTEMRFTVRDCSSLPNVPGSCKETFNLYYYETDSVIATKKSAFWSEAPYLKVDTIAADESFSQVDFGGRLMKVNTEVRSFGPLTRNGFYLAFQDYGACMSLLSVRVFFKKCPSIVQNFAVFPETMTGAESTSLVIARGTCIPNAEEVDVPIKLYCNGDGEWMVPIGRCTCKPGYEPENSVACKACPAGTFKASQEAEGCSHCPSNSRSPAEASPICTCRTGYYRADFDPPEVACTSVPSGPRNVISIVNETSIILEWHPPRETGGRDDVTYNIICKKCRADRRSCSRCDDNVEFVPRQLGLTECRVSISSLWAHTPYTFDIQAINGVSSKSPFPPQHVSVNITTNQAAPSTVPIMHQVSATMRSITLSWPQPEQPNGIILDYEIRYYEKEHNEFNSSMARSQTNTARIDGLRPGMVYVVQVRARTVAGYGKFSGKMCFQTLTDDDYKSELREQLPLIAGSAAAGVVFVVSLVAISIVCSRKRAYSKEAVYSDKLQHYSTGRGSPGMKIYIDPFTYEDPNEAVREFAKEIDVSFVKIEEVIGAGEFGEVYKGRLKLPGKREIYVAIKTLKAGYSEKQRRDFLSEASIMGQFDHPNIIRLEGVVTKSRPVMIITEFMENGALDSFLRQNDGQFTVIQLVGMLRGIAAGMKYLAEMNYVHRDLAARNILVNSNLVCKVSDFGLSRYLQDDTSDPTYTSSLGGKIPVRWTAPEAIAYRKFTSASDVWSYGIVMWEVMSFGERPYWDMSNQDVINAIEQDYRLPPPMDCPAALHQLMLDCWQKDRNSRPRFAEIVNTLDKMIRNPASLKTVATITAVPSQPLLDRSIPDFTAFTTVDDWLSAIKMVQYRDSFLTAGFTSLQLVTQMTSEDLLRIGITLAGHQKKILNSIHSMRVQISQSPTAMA
Sequence of PAK1 (Q13153 whole entry): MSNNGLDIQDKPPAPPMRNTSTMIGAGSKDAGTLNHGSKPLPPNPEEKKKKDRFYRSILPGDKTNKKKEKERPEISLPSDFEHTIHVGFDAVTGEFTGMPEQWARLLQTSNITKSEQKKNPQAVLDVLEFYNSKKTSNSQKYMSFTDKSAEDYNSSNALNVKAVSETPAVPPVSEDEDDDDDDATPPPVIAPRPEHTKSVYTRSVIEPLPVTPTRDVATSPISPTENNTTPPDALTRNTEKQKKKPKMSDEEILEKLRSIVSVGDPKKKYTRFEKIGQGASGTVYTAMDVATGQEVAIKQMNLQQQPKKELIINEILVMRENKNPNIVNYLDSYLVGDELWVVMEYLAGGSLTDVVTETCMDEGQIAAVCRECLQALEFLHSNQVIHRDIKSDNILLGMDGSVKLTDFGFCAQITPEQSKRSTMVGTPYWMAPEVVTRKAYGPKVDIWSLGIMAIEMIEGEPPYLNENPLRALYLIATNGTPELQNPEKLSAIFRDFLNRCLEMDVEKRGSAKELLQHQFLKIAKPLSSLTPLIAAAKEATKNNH
Sequence of SRC (P12931 whole entry, species assumed): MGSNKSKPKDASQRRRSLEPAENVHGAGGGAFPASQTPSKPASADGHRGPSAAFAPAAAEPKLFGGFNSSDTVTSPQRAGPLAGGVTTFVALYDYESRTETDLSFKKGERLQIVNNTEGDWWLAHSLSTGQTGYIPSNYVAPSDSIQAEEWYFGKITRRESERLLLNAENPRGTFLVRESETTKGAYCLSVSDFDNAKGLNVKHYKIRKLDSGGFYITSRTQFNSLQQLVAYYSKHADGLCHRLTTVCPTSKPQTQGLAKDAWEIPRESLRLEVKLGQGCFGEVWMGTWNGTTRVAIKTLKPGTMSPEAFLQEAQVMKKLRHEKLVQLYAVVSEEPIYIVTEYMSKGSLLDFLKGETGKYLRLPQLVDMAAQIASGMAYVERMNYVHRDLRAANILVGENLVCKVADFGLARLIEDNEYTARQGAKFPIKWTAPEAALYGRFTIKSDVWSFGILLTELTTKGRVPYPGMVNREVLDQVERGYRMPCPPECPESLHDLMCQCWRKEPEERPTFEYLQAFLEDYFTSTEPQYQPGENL
Sequence of JAK1 (P23458 whole entry, species assumed): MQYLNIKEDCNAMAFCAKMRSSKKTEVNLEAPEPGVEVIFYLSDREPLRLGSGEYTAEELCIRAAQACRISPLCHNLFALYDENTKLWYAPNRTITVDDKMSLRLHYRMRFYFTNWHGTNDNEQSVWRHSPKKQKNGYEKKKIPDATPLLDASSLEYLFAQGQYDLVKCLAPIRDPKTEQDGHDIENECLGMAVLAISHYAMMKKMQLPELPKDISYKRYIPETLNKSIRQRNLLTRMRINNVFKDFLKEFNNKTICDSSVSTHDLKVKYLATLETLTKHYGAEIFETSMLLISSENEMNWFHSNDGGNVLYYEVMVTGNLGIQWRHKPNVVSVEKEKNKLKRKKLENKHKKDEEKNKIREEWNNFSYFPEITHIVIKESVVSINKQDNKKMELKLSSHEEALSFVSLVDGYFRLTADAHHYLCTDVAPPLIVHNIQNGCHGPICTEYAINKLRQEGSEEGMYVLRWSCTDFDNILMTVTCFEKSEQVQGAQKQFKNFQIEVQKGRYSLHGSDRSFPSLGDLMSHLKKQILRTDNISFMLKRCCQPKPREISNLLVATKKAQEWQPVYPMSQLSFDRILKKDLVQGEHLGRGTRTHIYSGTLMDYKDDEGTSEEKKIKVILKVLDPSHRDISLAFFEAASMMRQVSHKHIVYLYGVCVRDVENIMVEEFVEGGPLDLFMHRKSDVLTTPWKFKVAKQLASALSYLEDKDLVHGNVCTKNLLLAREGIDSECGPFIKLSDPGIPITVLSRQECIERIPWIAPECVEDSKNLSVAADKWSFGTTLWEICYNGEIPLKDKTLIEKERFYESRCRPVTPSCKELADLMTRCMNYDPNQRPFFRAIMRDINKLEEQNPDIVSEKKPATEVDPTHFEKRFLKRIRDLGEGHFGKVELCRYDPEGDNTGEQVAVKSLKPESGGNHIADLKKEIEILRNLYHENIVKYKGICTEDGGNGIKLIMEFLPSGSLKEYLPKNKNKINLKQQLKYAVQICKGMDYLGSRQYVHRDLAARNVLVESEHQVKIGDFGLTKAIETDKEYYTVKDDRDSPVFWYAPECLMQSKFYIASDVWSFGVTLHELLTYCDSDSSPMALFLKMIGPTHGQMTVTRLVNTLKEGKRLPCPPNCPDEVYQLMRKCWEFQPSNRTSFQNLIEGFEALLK
Sequence of PIK3CD/PIK3R1 (p110 delta/p85 alpha) (O00329 whole entry, species assumed): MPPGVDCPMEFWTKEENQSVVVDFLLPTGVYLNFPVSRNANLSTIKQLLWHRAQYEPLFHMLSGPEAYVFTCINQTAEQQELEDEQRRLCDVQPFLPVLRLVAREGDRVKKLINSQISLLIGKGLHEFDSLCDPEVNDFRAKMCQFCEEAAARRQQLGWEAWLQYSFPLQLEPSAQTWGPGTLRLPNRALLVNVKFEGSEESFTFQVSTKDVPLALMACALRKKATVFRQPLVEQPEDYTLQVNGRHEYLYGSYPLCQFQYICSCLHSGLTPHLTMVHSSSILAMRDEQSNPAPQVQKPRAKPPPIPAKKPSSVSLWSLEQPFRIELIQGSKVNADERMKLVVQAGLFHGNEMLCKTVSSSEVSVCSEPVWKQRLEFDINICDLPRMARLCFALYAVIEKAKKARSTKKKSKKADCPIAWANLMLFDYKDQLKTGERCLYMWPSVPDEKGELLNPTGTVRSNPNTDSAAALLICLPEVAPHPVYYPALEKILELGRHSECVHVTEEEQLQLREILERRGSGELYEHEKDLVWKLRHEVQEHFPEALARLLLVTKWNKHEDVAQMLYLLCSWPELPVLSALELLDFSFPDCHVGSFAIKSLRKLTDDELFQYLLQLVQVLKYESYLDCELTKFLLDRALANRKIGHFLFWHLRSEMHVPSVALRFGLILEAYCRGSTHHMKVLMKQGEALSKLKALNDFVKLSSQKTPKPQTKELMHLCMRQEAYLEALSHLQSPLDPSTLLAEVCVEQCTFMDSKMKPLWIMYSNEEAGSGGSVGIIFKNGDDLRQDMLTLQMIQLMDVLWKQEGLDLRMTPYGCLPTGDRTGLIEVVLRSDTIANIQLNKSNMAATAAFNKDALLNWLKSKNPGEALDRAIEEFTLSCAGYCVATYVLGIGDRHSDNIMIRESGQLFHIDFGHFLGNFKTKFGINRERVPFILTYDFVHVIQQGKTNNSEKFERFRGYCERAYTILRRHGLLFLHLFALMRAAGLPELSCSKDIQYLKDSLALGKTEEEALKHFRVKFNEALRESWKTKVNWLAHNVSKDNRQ
Sequence of PIK3CD/PIK3R1 (p110 delta/p85 alpha) (P27986 whole entry partner, species assumed): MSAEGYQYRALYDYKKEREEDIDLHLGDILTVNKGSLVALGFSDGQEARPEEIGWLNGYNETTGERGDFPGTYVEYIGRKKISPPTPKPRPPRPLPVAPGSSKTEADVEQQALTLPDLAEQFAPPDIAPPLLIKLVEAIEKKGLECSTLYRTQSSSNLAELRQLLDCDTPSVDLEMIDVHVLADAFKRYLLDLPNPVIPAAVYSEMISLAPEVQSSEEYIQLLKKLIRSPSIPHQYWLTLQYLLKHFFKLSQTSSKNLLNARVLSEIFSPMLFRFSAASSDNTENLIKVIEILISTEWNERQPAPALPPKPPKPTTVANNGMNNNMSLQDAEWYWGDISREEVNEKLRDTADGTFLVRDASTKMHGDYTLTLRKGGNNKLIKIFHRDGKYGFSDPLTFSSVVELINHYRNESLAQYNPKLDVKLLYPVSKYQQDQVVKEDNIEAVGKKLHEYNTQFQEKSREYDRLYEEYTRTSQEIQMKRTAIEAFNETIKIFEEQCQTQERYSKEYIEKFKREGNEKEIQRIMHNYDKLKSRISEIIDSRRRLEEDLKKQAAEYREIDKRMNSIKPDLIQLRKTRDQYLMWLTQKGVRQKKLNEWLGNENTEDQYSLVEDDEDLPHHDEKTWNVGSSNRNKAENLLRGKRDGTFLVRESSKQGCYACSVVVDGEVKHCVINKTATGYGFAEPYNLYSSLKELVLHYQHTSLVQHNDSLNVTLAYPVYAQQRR

- binding to Rac1 by 2D NMR [1]: did not indicate any binding
- RHOA activation [2]: no significant effect
- binding to the 12 GPCRs tested [3]: no significant binding
- inhibition of the 40 kinases tested [5]: no significant inhibition
- IC50 [6]: 160 µM
- IC50 [7]: 39.2 µM
- inhibition percentage [10]: 6.7 percentage
- inhibition percentage [11]: 8.7 percentage
- inhibition percentage [12]: 22.7 percentage
- inhibition percentage [13]: 13.3 percentage
- inhibition percentage [14]: −11.6 percentage
- inhibition percentage [15]: −4.2 percentage
- inhibition percentage [16]: −6.7 percentage
- inhibition percentage [17]: −3.3 percentage
- inhibition percentage [18]: −16.3 percentage
- inhibition percentage [19]: 11.5 percentage
- inhibition percentage [20]: 3.3 percentage
- inhibition percentage [21]: −2.3 percentage
- inhibition percentage [22]: −10.9 percentage
- inhibition percentage [23]: 9.0 percentage
- inhibition percentage [24]: 1.2 percentage
- inhibition percentage [25]: 7.1 percentage
- relative weight of the mice ([26]; vs vehicle group): nearly identical
Structure (SMILES): CCc1ccc(CN(C)C(=O)CCc2nnc(CCc3c[nH]c4ccccc34)o2)nc1 (racemic) [Compound 1]
- Rac activation status in spleen [4]: reduced Rac activation
- RAS activation [8]: no significant effect
- cell apoptosis and cell death [9]: caused cells apoptosis and cell death
- bioluminescence in the mice ([26]; imaged in supine or prone position, vs vehicle): significantly reduced
